Assay results taken from US20020150961A1, “Activity-dependent cysteine protease profiling reagent” (The Regents of the University of California Office of …, priority 2000, published 2002).
One block for each compound: values may come before it.

Key:
cathepsin B = biological target: T1, cathepsin B (Mus musculus, UniProt P10605); experiment: Competition labeling in DC2.4 lysates with cathepsin B-specific 125I-MB-074; format: biochemical; settings: P2 library preincubation
T1 construct: This method allowed analysis of cathepsin B specificity in crude extracts; endogenous in cells; host or cells: DC2.4 dendritic cell line
Description: (§1) Lysates from the dendritic cell line DC2.4 were prepared at pH 5.5 as described above. Purified cathepsin H was purchased from Calbiochem (San Diego, Calif.). Samples of lysates (100 μg total protein in 100 μL buffer B; 50 mM Tris pH 5.5, 5 mM MgC12, 2 mM DTT) or purified cathepsin H (1 μg protein in 100 μL buffer A) were preincubated with 50 μM of each library member (diluted from 5 mM DMSO stocks) for 2 hrs at room temperature. Samples were then labeled by addition of either ^125I-DCG-04 or ^125I-MB-074 to each sample followed by further incubation at room temperature for 1 hour. Samples were quenched by the addition of 4×sample buffer to 1×followed by boiling for 5 minutes. Samples were analyzed by SDS-PAGE followed by autoradiography.

[1] = test system: multiple proteases in DC2.4 lysates; experiment: Competition labeling in DC2.4 lysates with 125I-DCG-04; format: biochemical; settings: for potency and selectivity, competition of 125I-DCG-04 labeling of multiple polypeptides: 50 μM library member, DC2.4 lysates, pH 5.5
Description: as §1, with “Samples were then labeled by addition of either ^125I-DCG-04 or ^125I-MB-074 to each sample followed by further incubation at room temperature for 1 hour.” left out

[2] = test system: papain family proteases in rat liver; experiment: Affinity purification and identification of DCG-04 labeled proteases from rat liver; format: binding; settings: single-step affinity purification, LC-MS-TOF CID
Description: Protein lysates prepared in buffer A (50 mM Acetate buffer, 5 mM DTT, 0.1% Triton X-100) were incubated with […] for 1.5 hours at room temperature. After incubation the protein lysate was passed through a PD10 column pre-equilibrated with buffer B (50 mM Tris-Base 7.4, 150 mM NaCl) and proteins were eluted with the same buffer. SDS was added to eluted proteins to a final concentration of 0.5% and the solution boiled for 10 minutes, diluted 2.5 fold with buffer B (to reduce SDS concentration to 0.2%) and incubated with […] of pre-washed Streptavidin beads for 1 hour at room temperature. Beads were washed 5 times with buffer B, and bound proteins were eluted by boiling for 10 minutes in the presence of […]. For 2D analysis, samples in SDS sample buffer were diluted 1:1 with IEF sample buffer ([…], 5% BME, 2% NP-40, 1.6% pH 5-7 ampholines and 0.4% pH 3.5-10 ampholines) and pure NP-40 was added (25% of volume of sample). Samples were applied to IEF tube gels and electrophoresed at 1000V for 13 hours followed by separation in the second dimension on 15% SDS-PAGE gels. […] The mass range recorded in survey acquisitions was m/z 300-1400. […] All the data were measured using a two point external calibration. […]

[3] = test system: cysteine proteases in DC2.4 dendritic cell extracts; experiment: Direct labeling of DC2.4 total cell extracts with probes (affinity blot / autoradiography); format: binding
Description: Tissues were dounce-homogenized in buffer A (50 mM Tris pH 5.5, 1 mM DTT, 5 mM MgCl2, 250 mM sucrose) and extracts centrifuged at 1,100×g for 10 min at 4° C. The resulting supernatant was centrifuged at 22,000×g for 30 min at 4° C. and final supernatants used for all labeling experiments. Cells were lysed using glass beads (<104 microns) in buffer A and supernatants centrifuged for 15,000×g for 15 min at 4° C. The total protein concentration of the final supernatants (soluble) was determined by BCA protein quantification (Pierce).
Equivalent amounts of radioactive inhibitor stock solutions (approx. 10^6 cpm per sample) were used for all labeling experiments. Samples of lysates (100 μg total protein in 100 μL buffer; 50 mM Tris pH 5.5, 5 mM MgC12, 2 mM DTT) were labeled for 1 hour at 25° C. unless noted otherwise. Samples were quenched by dilution of 4×SDS sample buffer to 1×(for 1D SDS-PAGE) or by dissolving urea to a final concentration of 9.5 M (for 2D SDS-PAGE).
Quenched DCG-04 labeled samples were separated by SDS/PAGE […] and transferred to nitrocellulose using semi-dry apparatus. Membranes were blocked using phosphate buffered saline (PBS) and 5% (w/v) dry milk for 30 min at 25° C. Blots were washed briefly with PBS/0.2% Tween (PBS-Tween) and treated with avidin-horseradish peroxidase conjugate (VectaStain) in PBS-Tween for 30 min. at 25° C. […]

[4] = test system: cysteine proteases in rat kidney; experiment: Affinity purification and identification of DCG-04 modified proteins from rat kidney; format: binding; settings: monomeric-avidin purification, mass spectrometry
Description: A soluble fraction of rat kidney lysate (80 mg total protein) was diluted into anion exchange starting buffer (50 mM Tris, 50 mM NaCl, pH 9.0). The lysate was applied to a […] anion exchange column (Amersham Pharmacia Biotech) and eluted using a linear gradient of 0.05-1M NaCl, pH 9. An aliquot from each fraction (50 μL) was incubated with 50 μM DCG-04 at 25° C. for 1hr and analyzed on a 12.5% SDS/PAGE gel followed by affinity blotting as described above. The fractions containing peak labeling of the 25 kD-30 kD bands were pooled and DCG-04 was added to a final concentration of 50 μM. Pools were incubated at 25° C. for 2 hours and then 12 hours at 4° C. Unbound inhibitor was removed and buffer was exchanged with PBS using a PD-10 column (Pharmacia). Samples were applied to a monomeric-avidin column (1 ml bed volume; Pierce) and the column was washed with 6×1 ml fractions of 1M NaCl. Bound proteins were eluted with 0.5 ml fractions of 2 mM Biotin/100 mM NH4HCO3 buffer. All wash and eluent fractions were analyzed by SDS/PAGE and silver staining. The fractions containing the labeled 25-30 kD bands were pooled, the volume reduced by lyophilization and solid urea added to 9.5 M along with BME to 5%, NP-40 to 2%, pH 5-7 ampholytes to 1.6% and pH 3.5-10 ampholytes to 0.4%. […]

[5] = test system: papaine family of cysteine proteases; settings: literature; cited from earlier work
[6] = test system: papain family cysteine proteases in DC2.4 cells; experiment: In situ fluorescence labeling of DC2.4 cells; format: cell-based; settings: pre-treatment 10 mM for 1 hour
Description: Dendritic cells (DC2.4) were plated on a 24-well dish (10^5 cells/well) embedded with sterile microscope cover slips, in RPMI medium containing 10% FBS. After 16 hours, cells were washed with 1 ml TC-199 medium and incubated with […] of Bodipy-DCG-04 in TC-199 for 12 hours at 37° C. Cells were washed 3 times with 1 ml TC-199 and incubated for 5 hr in probe-free medium. Subsequently, cells were either lysed in buffer A and analyzed on a 12.5% SDS-PAGE using a fluorescent scanner or viewed under a fluorescent microscope.

invasive cells = settings: treatment of invasive cells, literature; cited from earlier work

T1 sequence (P10605 80-333 limits assumed): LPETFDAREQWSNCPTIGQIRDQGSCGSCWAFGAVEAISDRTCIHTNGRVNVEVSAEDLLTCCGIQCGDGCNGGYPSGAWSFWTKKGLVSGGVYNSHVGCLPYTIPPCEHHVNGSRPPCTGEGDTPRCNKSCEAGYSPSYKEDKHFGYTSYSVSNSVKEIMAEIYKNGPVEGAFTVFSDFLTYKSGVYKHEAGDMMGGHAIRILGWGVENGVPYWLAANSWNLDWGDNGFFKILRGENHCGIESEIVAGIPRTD

- activity, competition of 125I-MB-074 labeling of cathepsin B (cathepsin B): highest activity
Compound: CCCC[C@H](N)C(=O)O [norleucine]
- potency and selectivity, competition of 125I-DCG-04 labeling of multiple polypeptides [1]: highest activity and the lowest amount of specificity

Compound: N[C@@H](Cc1ccccc1)C(=O)O [phenylalanine]
- activity, competition of 125I-MB-074 labeling of cathepsin B (cathepsin B): highest activity followed by the aromatic amino acids
- potency and selectivity, competition of 125I-DCG-04 labeling of multiple polypeptides [1]: specificity for polypeptides 2, 3, 4, and 5

- activity, competition of 125I-MB-074 labeling of cathepsin B (cathepsin B): highest activity
Compound: DCG-04
- proteases identified via probe [2]: cathepsins Z, H, C and J
- potency and selectivity, competition of 125I-DCG-04 labeling of multiple polypeptides [1]: highest activity and the lowest amount of specificity
- labeling of major 20-40 kDa species after preheating of samples ([3]; preheated to 100° C. for 1 min before adding compound): lost upon heat denaturation
- active cysteine proteases identified via probe [4]: cathepsin B, H, and L

Compound: N[C@@H](CC(=O)O)C(=O)O [aspartic acid]
- potency and selectivity, competition of 125I-DCG-04 labeling of multiple polypeptides [1]: relatively poor activity overall, they showed some degree of specificity against polypeptide 2

- activity, competition of 125I-MB-074 labeling of cathepsin B (cathepsin B): highest activity
Compound: CC(C)[C@H](N)C(=O)O [valine containing compound]
- potency and selectivity, competition of 125I-DCG-04 labeling of multiple polypeptides [1]: competed for polypeptides 1, 2 and cathepsin B but had little effect on the remaining species

- activity, competition of 125I-MB-074 labeling of cathepsin B (cathepsin B): highest activity
Compound: CC[C@H](C)[C@H](N)C(=O)O [isoleucine]
- potency and selectivity, competition of 125I-DCG-04 labeling of multiple polypeptides [1]: highest activity and the lowest amount of specificity

Compound: CC(C)CC(NC(=O)C1OC1C(=O)O)C(=O)NCCc1ccc(O)cc1 (stereo not shown) [JPM-565, reference compound]
- labeling as detected by affinity blotting ([3]; non-radiolabeled compound, DC2.4 extracts): no labeling

Compound: N[C@@H](Cc1ccc(O)cc1)C(=O)O [tyrosine]
- activity, competition of 125I-MB-074 labeling of cathepsin B (cathepsin B): highest activity followed by the aromatic amino acids
- potency and selectivity, competition of 125I-DCG-04 labeling of multiple polypeptides [1]: specificity for polypeptides 2, 3, 4, and 5

Compound: CC(C)C[C@H](NC(=O)[C@H]1O[C@@H]1C(=O)O)C(=O)NCCCCN=C(N)N [E-64]
- reactivity toward cysteine proteases [5]: broadly reactive
- inhibition of in situ protease labeling by green-DCG-04 [6]: completely inhibited
- competition of 125I-DCG-04 labeling ([1]; increasing concentrations, preincubation, DC2.4 extracts): effectively competed
- effect on cellular invasion (invasive cells): block in cellular invasion into a synthetic matrix

Compound: NCC(=O)O [glycine]
- potency and selectivity, competition of 125I-DCG-04 labeling of multiple polypeptides [1]: relatively poor activity overall, they showed some degree of specificity against polypeptide 2
